Target: testosterone 5α-reductase
Test: 5α-reductase inhibitory activity (conversion of radiolabelled testosterone to 5α-dihydrotestosterone, microsomal enzyme specimen)
Type: biochemical, rats
Details: rat prostate microsomes; pH 6.6; 25° C.; 60 minutes; 8.5 pmol labelled testosterone
Procedure: The 5α-reductase inhibitory activity was determined as follows.
Prostate gland cells of rats were crushed and a specimen of testosterone 5α-reductase was then prepared by separating microsome from the crushed liquid mixture. The conversion of the testosterone to 5α-dihydrotestosterone by the use of the above-prepared enzyme specimen was monitored by radioisotopically labelled testosterone. The reaction mixture was extracted with ethyl acetate and the extract was developed twice by silica gel thin layer chromatography (solvent system, dichloromethane:cyclohexane:acetone=15:4:1). The amount of 5α-dihydrotestosterone was determined from the intensities of the radioactivity.
A 30 μl amount of a 0.05 M phosphate buffer (pH=6.6), 10 μl of an enzyme specimen, 8.5 pmol of labelled testosterone, 50 nmol of a reduced form of NADP (nicotinamide adenine dinucleotide phosphate), and 10 μl of a test sample were mixed (final volume […]). The mixture was incubated at a temperature of 25° C. for 60 minutes.
The reaction was stopped by the addition of 100 μl of ethyl acetate, and the reaction mixture was extracted by vigorous shaking. The extract was developed in the same manner as mentioned above, and the intensity of the radioisotope was measured by using a scintillation counter.
The above-mentioned determination was applied to samples having various concentrations. […]

Compound	IC50 [mM]
CCCCCCCCCCCCCCCCCC(=O)O [Stearic acid]	1.3
CC/C=C\C/C=C\C/C=C\CCCCCCCC(=O)O [Linolenic acid]	1.6

Source: US4737362A, “Hair treatment composition” (Suntory Limited, priority 1983, dated 1988)
